We go through five compounds from PMC7919047, “Trichilianones A-D, Novel Cyclopropane-Type Limonoids from Trichilia adolfi” (Molecules, 2021).

The subject of data set [1] is L. braziliensis promastigotes. Put plainly: In vitro leishmanicidal activity against promastigotes (optical density, 72 h). The class given is cell-based. The conditions noted are these: Leishmania braziliensis, read-out: Leishmanicidal activity L.b, IC50. The method, then: (§1) Leishmanicidal activity was assayed according to Williams, with some modification. Promastigotes of Leishmania: L. amazonensis, Clone 1, NHOM-BR-76-LTB-012 (Lma, donated by the Paul Sabatier Université, France) and L. braziliensis M2904 C192 RJA (M2904, donated by Dr. Jorge Arévalo from Universidad Peruana Cayetano Heredia, Peru). The strains were cultured in Schneider’s insect medium (pH 6.2), supplemented with 10% FBS and incubated in 96-microwell plates at 26 °C. Briefly, promastigotes in logarithmic phase of growth, at concentration of 106 parasites/mL, were exposed to samples dissolved in DMSO (1%) at different concentrations (3.1–100 μg/mL). Miltefosine (3.1–100 μg/mL, IDPS, France) was used as control drug. The microwell plates were incubated for 72 h at 26 °C, the optical density of each well was measured and the IC50 values calculated. All assays were performed in triplicate.

For data set [2], the system named is Leishmania amazonensis promastigotes. The data set is described as above. The class given is cell-based. The conditions noted are these: read-out: Leishmanicidal activity L.a., IC50. The method, then: as §1
The nature of data set [3]: Cytotoxicity in Raw 264.7 murine macrophage cell cultures (resazurin, 72 h). The conditions noted are these: mouse, Raw 264.7 murine macrophages, 72 h at 37 °C, 6.2–200 μg/mL, triplicate. It counts as cell-based. The method, then: The Raw 264.7 murine macrophage cell line was purchased from the American-Type Culture Collection (ATCC-TIB71). The cells were maintained in DMEM-HG medium supplemented with 10% fetal bovine serum, 100 U/mL of penicillin and 100 μg/mL of streptomycin, and sodium bicarbonate (2.2 g/L) in humidified atmosphere at 37 °C with 5% CO2. Samples were prepared as described above and added (in 100 μL DMSO) at different concentrations (6.2–200 μg/mL). Medium blank, control drugs and cell growth controls were included to evaluate cell viability. The plates were incubated for 72 h at 37 °C with 5% CO2. After incubation for the indicated time, the cells were washed, after which 10 μL of Resazurin reagent (2.0 mM) was added. They were further incubated at 37 °C for 3 h in a humidified incubator. The IC50 values were assessed using a fluorometric reader (540 nm excitation, 590 nm emission) and Gen5 software. All assays were performed in triplicate.

Converted amounts (≈) assume the structure as drawn. Read-outs that look alike come from different tables or passages of the source. Where only a bound is given, the exact number is not on record here.

The IC50 is the concentration that inhibits the measured activity by half. Usually melting point stands for the temperature, or range, at which the solid turns liquid. Take `COC(=O)CC1C(C)(C)OC(=O)CC2OC3(C)C45C(=O)CC(c6ccoc6)C4(C)C(OC(C)=O)C(OC(=O)C(C)C)C35C21C` (stereo not shown) [Compound 3, Trichilianone C]: the melting point amounted to 151 °C. For the same compound, the IC50 in data set [1] (72 h) is more than 100 µg/mL. Also, the IC50 in data set [2] (72 h) was more than 100 µg/mL. Besides, the IC50 at 72 h in data set [3] (Raw 264.7 macrophage cells) is 70 ± 27 µg/mL (≈ 114 µM).
Turning to `CCCCCCCCCCCCCCCCOP(=O)([O-])OCC[N+](C)(C)C` [Miltefosine, reference compound], the IC50 in data set [1] (L. braziliensis M2904 C192 RJA promastigotes, 72 h at 26 °C, 3.1–100 μg/mL, triplicate) is 4.1 ± 0.5 µg/mL (≈ 10.1 µM); in data set [2] (L. amazonensis Clone 1 NHOM-BR-76-LTB-012 promastigotes, 72 h at 26 °C, 3.1–100 μg/mL, triplicate), 5 ± 0.2 µg/mL (≈ 12.3 µM). The compound further showed an IC50 at 72 h in data set [3] (Raw 264.7 macrophage cells) of 21 ± 2 µg/mL (≈ 51.5 µM).
Consider `COC(=O)CC1C(C)(C)OC(=O)CC2OC3(C)C45C(=O)CC(c6ccoc6)C4(C)C(OC(C)=O)C(O)C35C21C` (stereo not shown) [Compound 2, Trichilianone B], for which the melting point stood at 145 °C. Also, the IC50 in data set [1] (72 h) was more than 100 µg/mL. In data set [2] (72 h), the IC50 is more than 100 µg/mL. The compound further yielded an IC50 at 72 h in data set [3] (Raw 264.7 macrophage cells) of 75 ± 18 µg/mL (≈ 138 µM).
In turn, `COC(=O)CC1C(C)(C)OC(=O)C=C2OC3(C)C45C(=O)CC(C6=CCOC6=O)C4(C)C(OC(C)=O)C(O)C35C21C` (stereo not shown) [Compound 4, Trichilianone D] returned a melting point of 175 °C. In data set [1] (72 h), the IC50 was more than 100 µg/mL. The IC50 in data set [2] (72 h) was more than 100 µg/mL. Moreover, in data set [3], the IC50 at 72 h was found to be 76 ± 23 µg/mL (≈ 136 µM).
Regarding `COC(=O)CC1C(C)(C)OC(=O)C=C2OC3(C)C45C(=O)CC(c6ccoc6)C4(C)C(OC(C)=O)C(O)C35C21C` (stereo not shown) [Compound 1, Trichilianone A], the melting point is 181 °C. Moreover, in data set [1] (72 h), the IC50 is more than 100 µg/mL. In addition, in data set [2] (72 h), the IC50 was more than 100 µg/mL. Besides, the midpoint of inhibition in data set [3], the IC50 at 72 h, lay at 64 ± 23 µg/mL (≈ 118 µM).
